Literature values, collected in US20200315965A1, “NANOEMULSION CONCENTRATE FORMULATIONS AND METHODS” (priority 2019, published 2020).

Settings: water

In the case of `CCCCCc1cc(O)c2c(c1)OC(C)(C)[C@@H]1CCC(C)=C[C@@H]21` [THC, tetrahydrocannabinol], the aqueous solubility is given as about 0.003 milligrams per milliliter.
